We go through 3 compounds from ChEMBL document CHEMBL1777672, “Synthesis and antifungal activities of natural and synthetic biflavonoids” (2011).

The test system of one experiment is Aspergillus oryzae. In words: Antifungal activity against Aspergillus oryzae ATCC 10124 after 48 hrs by agar diffusion bioautography method. It counts as functional, organism-based.
The next experiment concerns Fusarium solani. The experiment is described as follows: Antifungal activity against Fusarium solani ATCC 36031 after 48 hrs by agar diffusion bioautography method. In kind it is functional, organism-based. (In general: In agar diffusion tests the substance spreads into inoculated agar from a disc or well.)
The next experiment concerns Candida albicans. In words: Antifungal activity against Candida albicans ATCC 90028 after 48 hrs by agar diffusion bioautography method. In kind it is functional, organism-based.
Experiment [1] relates to Candida parapsilosis. In words: Antifungal activity against Candida parapsilosis ATCC 22019 after 48 hrs by agar diffusion bioautography method. It counts as functional, organism-based.
The subject of experiment [2] is Cryptococcus neoformans. In words: Antifungal activity against Cryptococcus neoformans ATCC 14116 after 72 hrs by agar diffusion bioautography method. It counts as functional, organism-based.
In experiment [3] the test system is Aspergillus niger. In words: Antifungal activity against Aspergillus niger ATCC 16404 after 48 hrs by agar diffusion bioautography method. In kind it is functional, organism-based.
A short description of experiment [4]: Antifungal activity against Rhizopus stolonifer (+) ATCC 6227b after 48 hrs by agar diffusion bioautography method. In kind it is functional.
Experiment [5] concerns Candida parapsilosis. The experiment is described as follows: Antifungal activity against Candida parapsilosis ATCC 22019 after 48 hrs by broth microdilution technique. It counts as functional. The note with it: Lodderomyces parapsilosis, ATCC 22019, 48 h.
For experiment [6], the system named is Cryptococcus neoformans. In words: Antifungal activity against Cryptococcus neoformans ATCC 14116 after 72 hrs by broth microdilution technique. It counts as functional. Conditions: ATCC 14116, 72 h.
Experiment [7] can be described thus: Antifungal activity against Rhizopus stolonifer (+) ATCC 6227b after 48 hrs by broth microdilution technique. In kind it is functional.
Experiment [8] concerns Aspergillus niger. The experiment is described as follows: Antifungal activity against Aspergillus niger ATCC 16404 after 48 hrs by broth microdilution technique. In kind it is functional. Conditions: ATCC 16404, 48 h. In general terms: Broth dilution looks for growth in wells or tubes with falling amounts of substance.

In brackets after ≈: the same amount, converted by molar mass. Activity calls are given as the source filed them.

For `O=c1cc(-c2ccc(O)cc2)oc2ccc(-c3ccc4oc(-c5ccc(O)cc5)cc(=O)c4c3)cc12`, the result (with Aspergillus oryzae; with Fusarium solani; in the experiment on Candida albicans; in the experiment with Cryptococcus neoformans [2]; with Aspergillus niger [3]; in [4]) was inactive. Moreover, the outcome in the experiment with Candida parapsilosis [1] was Active. In the experiment with Candida parapsilosis [5], the minimum inhibitory concentration (MIC) – broadly, the smallest concentration in the dilution series that meets the test's criterion for growth inhibition – worked out at 400 µM (≈ 190 µg/mL).

As for `O=c1c(-c2c(-c3ccccc3)oc3ccccc3c2=O)c(-c2ccccc2)oc2ccccc12`, the result with Aspergillus oryzae, in the experiment with Fusarium solani, with Candida albicans and in the experiment with Aspergillus niger [3] was inactive. In addition, the outcome (with Candida parapsilosis [1]; in the experiment on Cryptococcus neoformans [2]; in experiment [4]) was Active. Further, the MIC with Candida parapsilosis [5] was 400 µM (≈ 177 µg/mL); in the experiment on Cryptococcus neoformans [6], over 800 µM; in experiment [7], over 800 µM.

`O=c1cc(-c2ccccc2)oc2ccccc12` [FLAVONE]: the MIC against Candida parapsilosis [5] was 200 µM (≈ 44.4 µg/mL); in the experiment on Cryptococcus neoformans [6], 100 µM (≈ 22.2 µg/mL); with Aspergillus niger [8], 800 µM (≈ 178 µg/mL); in [7], 100 µM (≈ 22.2 µg/mL).
